# Laboratory results published in patent US5639873A, “Oligothionucleotides” (Centre National de la Recherche Scientifique (CNRS), priority 1992, dated 1997).
# Entries after “also recorded” stand apart in the source; their conditions may differ.
# Key:
# [1] = system: calf spleen phosphodiesterase; experiment: Enzymatic degradation of the dodecamers by calf spleen phosphodiesterase; format: in vitro ADME; details: for Degradation in 0 min / Degradation in 25 min: Table 8
# Excerpt: Study of the enzymatic degradation of the dodecamer β(SrT)dT11 (SEQ ID NO: 3) by calf spleen phosphodiesterase. Calf spleen phosphodiesterase is an exonuclease which degrades the oligomers from their free 5' ends, thus liberating nucleotides 3' phosphate.
# This study will allow us to evaluate the resistance to enzymatic degradation induced by the presence in the 5' position of a 4'-thionucleotide unit in the oligomer β(SrT)dT11 (SEQ ID NO: 3) compared to the enzymatic degradation of the oxygenated natural homolog βdT12 (SEQ ID NO: 3). The comparative stability of the two dodecamers βdT12 (SEQ ID NO: 3) and β(SrT)dT11 (SEQ ID NO: 3) towards hydrolysis by calf spleen phosphodiesterase is presented in Table 8.
# The variation over time of the enzymatic degradation of the two dodecamers was monitored by HPLC. We were able to plot the curve for enzymatic digestion of β(SrT)dT11 (SEQ ID NO: 3) as a function of time: A=A0 e^-kt (FIG. 2, A) where:
# A0 is the initial surface area of the 12-mer
# A is the surface area of the 12-met at the instant t
# k is the first order rate constant for the degradation
# An oligonucleotide solution (20 μl, 3 absorbance units at 260 nm) is diluted in 0.125M ammmonium acetate buffer (pH 7.0), 2.5 mM EDTA and 0.065% Tween 80 (80 μL). A commercial solution of calf spleen phosphodisesterase (2 μl, final concentration 0.008 unit/ml) is added and the mixture is incubated at 37° C. At determined times, aliquot fractions are collected (5 μl), heated at 100° C. for one minute and analyzed by HPLC.
# The analyses were carried out on an PVDI (Polyvinylimidazole SFCC-Shandon) column protected by a precolumn and a prefilter. The elution is carried out based on a linear gradient over 20 minutes from 0.1M to 0.4M KCl in 20 mM KH2 PO4 at pH 6 containing 20% acetonitrile. The flow rate was fixed at 1 ml/min and the UV detection at 260 nm.
# [2] = system: βdC2 A12 C2 (SEQ ID NO: 4); experiment: Melting of duplexes with βdC2 A12 C2 (UV spectrophotometry, melting temperature); format: binding; details: for Melting temperature (Tm): 10 mM sodium cacodylate, pH 7; for Tm: Table 7, duplex with d(C2 A12 C2), 3 μM
# Excerpt: (§1) UV spectrophotometry makes it possible to study the nucleic acids and to detect the formation of duplex, the melting temperature being one of the characteristics of a duplex. The stacking and pairing of the bases of the nucleic acids are accompanied by a decrease in the UV absorbtion (hypochromicity). […] The point of inflection of the curve, of sygmoidal shape, of the variation of the absorbance as as function of temperature is called melting temperature or Tm and corresponds to the co-existence of separate strands and paired strands in a 50/50 ratio.
# (§2) Analysis of the melting curves for the β-4'-thiooligoribonucleotide/β-oligodeoxyribonucleotide and β-4'-thiooligoribonucleotide/β-oligoribonucleotide duplexes will make it possible to define the thermal stability of such duplexes by the measurement of the melting temperature. These hybridization experiments are carried out preserving a 1/1 stoichiometry between the two complementary strands, in the presence of a 1M NaCl, 10 mM sodium cacodylate buffer. A high NaCl concentration indeed favors the pairings by solvating the negative charges around the phosphorus atoms of the two oligonucleotides. We therefore carried out these hybridization experiments in a 0.1M NaCl, 10 mM sodium cacodylate buffer.
# (§3) In order to carry out the hybridization experiment, it is necessary to know the concentration of each oligomer in order to preserve the 1:1 stoichiometry between the two complementary strands. According to the BEER-LAMBERT law A=ε1c, the absorbances of the oligomers were measured at 80° C. in order to remove the phenomenon of stacking of the bases creating a disturbance in the hyperchromicity due to the existence of tertiary structures.
# (§4) The hybridization experiments were carried out with a UVIKON 810 spectrophotometer (KONTRON), coupled to an IBM-compatible microcomputer. […] The UV cuvettes are made from quartz of 1 cm in length and a continous circulation of nitrogen is used for temperatures of less than 20° C. […] This mixture is heated at 80° C. for 1 hour, and then cooled to -20° C. according to a temperature gradient of 0.5° C. per minute. The absorbance and temperature values are collected every 30 seconds.
# (§5) The same experiment is carried out using a sufficient quantity for 1000 μl of 0.1M NaCl, 10 mM sodium cacodylate hybridization buffer adjusted to pH 7 in order to evaluate the thermal stability of the duplex in this buffer which favors the pairings less.
# (§6) The hybridization experiments were carried out preserving the 1/1 stoichiometry between the two complementary strands in the presence of a 1M NaCl, 10 mM sodium cacodylate buffer. A high NaCl concentration indeed favors the pairings by solvating the negative charges around the phosphorus atoms of the two oligonucleotides. We carried out these hybridization experiments in another buffer 0.1M NaCl, 10 mM sodium cacodylate.
# as §3, with “experiments,” for “experiment,”
# as §4
# [3] = system: 5'-exonuclease calf spleen phosphodiesterase; experiment: Enzymatic degradation of hexamers by 5'-exonuclease calf spleen phosphodiesterase; format: in vitro ADME
# Excerpt: (§7) Study of the substrate-type activities of hexamers 4'-SrU6, 4'-SrU6 -3'n-prOH compared with the substrate characteristics of the hexamers βrU6 and αrU6 in relation to various purified nucleases.
# Calf spleen phosphodiesterase (CSP) is a 5'-exonuclease which degrades the oligonucleotides from their 5' end and liberates nucleotides 3'-phosphates.
# (§8) These four enzymes were obtained from Boehringer Mannheim.
# (§9) Generally, one optical density unit at 260 nm of each hexamer is brought into contact with a certain concentration of the enzyme considered and is then diluted in a sufficient quantity for 1000 μl of enzymatic digestion buffer.
# (§10) Various digestion buffers were used depending on the nature of the enzyme (Table 9).
# (§11) The stock sample is divided into 10 fractions of 100 μl before being frozen at -18° C.
# (§12) One aliquot fraction of 100 μl is collected and incubated in a dry oven thermostated at 37° C. for a time t and is then analyzed by analytical HPLC.
# (§13) The study of the surface area of the signal corresponding to the hexamer makes it possible to measure a kinetics of degradation whose half-life period is calculated (Table 10).
# [4] = system: Endonuclease S1; experiment: Enzymatic degradation of hexamers by endonuclease S1; format: in vitro ADME
# Excerpt: as §7
# Endonuclease S1, specific for the single DNA strand hydrolyzes the phosphodiester bonds in a random manner.
# as §8, §9, §10, §11, §12, §13
# [5] = system: Ribonuclease A; experiment: Enzymatic degradation of hexamers by ribonuclease A; format: in vitro ADME
# Description: as §7
# Ribobuclease A degrades an oligoribonucleotide after the pyrimidine residues.
# as §8, §9, §10, §11, §12, §13
# [6] = system: 3'-exonuclease snake venom phosphodiesterase; format: in vitro ADME
# Excerpt: as §7
# Snake venom phosphodiesterase (VSP) is a 3'-exonuclease-3' which liberates nucleotides 5'-phosphate after degrading the oligomer by its 3' end.
# as §8, §9, §10, §11, §12, §13
# [7] = system: polyrA; experiment: Melting of duplexes with polyrA (UV spectrophotometry, melting temperature); format: binding; details: for Tm: Table 7, duplex with poly rA, 3 μM; for thermal stability with complementary RNA (in words): complementary RNA sequences; for Melting temperature (Tm) / hypochromicity: Table 4, 3 μM of each oligomer; for Melting temperature (Tm): 10 mM sodium cacodylate, pH 7
# Excerpt: as §1, §2, §3, §4, §5, §6
# as §3, with “experiments,” for “experiment,”
# as §4
# [8] = system: βSrU12 (SEQ ID NO: 5); experiment: Self-hybridization of the oligomer βSrU12; format: binding; details: 1M and 0.1M NaCl
# Description: For that, an experiment for self-hybridization of the dodecamer βSrU12 (SEQ ID NO: 5) was carried out at two NaCl concentrations (1M and 0.1M). […] No point of inflection can be visualized on such a straight line.
# The hybridization experiments were carried out with a UVIKON 810 spectrophotometer (KONTRON), coupled to an IBM-compatible microcomputer. The temperature is controlled by a HUBER PD 415 temperature programmer connected to a thermostated bath (HUMER […]). The UV cuvettes are made from quartz of 1 cm in length and a continous circulation of nitrogen is used for temperatures of less than 20° C. Before the experiment, 3 μM (Examples 1 to V) or 10 μM (Examples VI and VII) of complementary oligomers are brought into contact in a sufficient quantity for 1000 μl of 1M NaCl and 10 mM sodium cacodylate buffer, adjusted to pH 7 (Examples I to VII). This mixture is heated at 80° C. for 1 hour, and then cooled to -20° C. according to a temperature gradient of 0.5° C. per minute. The absorbance and temperature values are collected every 30 seconds.
# as §5
# Concentration of βrU12 (SEQ ID NO: 5)=0.351 mM […]
# [9] = Table 6, 1M NaCl, 10 μM of each oligomer
# [10] = Table 5, 0.1M NaCl, 3 μM of each oligomer
# [11] = Table 5, 1M NaCl, 3 μM of each oligomer
substance,measurement,setting,value
β(SrT)dT11: dodecamer with a 4'-thionucleotide unit in the 5' position (TTTTTTTTTTTT; 5' 4'-thionucleotide unit),first order rate constant for the degradation (k),"[1]; FIG. 2, 37° C., 0.008 unit/ml",0.016 min⁻¹
same,half-life period (t1/2),"[1]; FIG. 2, 37° C., 0.008 unit/ml",0.717 h
same,Degradation in 0 min,"[1]; 37° C., 0.008 unit/ml",0%
same,Degradation in 25 min,"[1]; 37° C., 0.008 unit/ml",23%
same,half-life period compared with that of βSrU12 (in words),[1]; degradation by the 5' end,substantially greater
βdT12: oxygenated natural homolog βdT12 [reference compound],Melting temperature (Tm),[2]; [9],45 °C
same,hypochromicity,[2]; [9],20.5%
same,half-life period (t1/2),"[1]; FIG. 2, 37° C., 0.008 unit/ml",0.017 h
same,Degradation in 0 min,"[1]; 37° C., 0.008 unit/ml",0%
same,Degradation in 25 min,"[1]; 37° C., 0.008 unit/ml",93%
4'-Sr-(U-U-U-U-U-U) [βSrU6],enzymatic resistance compared with βrU6 (in words),[3]; CSP,high enzymatic resistance
same,Half-life period,"[3]; Table 10, CSP 13 × 10^-3 units/ml, pH 7, 37° C.",65 h
same,enzymatic resistance compared with βrU6 (in words),[4]; S1,high enzymatic resistance
same,Half-life period,"[4]; Table 10, S1 20 units/ml, pH 4.7, 37° C.",15.5 h
same,enzymatic resistance compared with βrU6 (in words),[5]; RNase-A,high enzymatic resistance
same,Half-life period,"[5]; Table 10, RNAse A 2 × 10^-2 units/ml, pH 7.4, 37° C.",11.2 h
same,Half-life period,"[6]; Table 10, VSP 6 × 10^-4 units/ml, pH 9.4, 37° C.",1.27 h
same,enzymatic resistance compared with βrU6 (in words),[6]; VSP,high enzymatic resistance
"4'-SrU3 -dT6 -4'-SrU3 /P3 PS5 P3 (UUUTTTTTTUUU; 4'-thioribouridine units; phosphorothioate bonds) [compound 5, mixed dodecamer containing both phosphodiester and phosphorothioate bonds]",Tm,[2]; 0.1 M NaCl,3 °C
same,Tm,[2]; 1 M NaCl,19 °C
same,Tm,[7]; 0.1 M NaCl,24 °C
same,Tm,[7]; 1 M NaCl,36 °C
same,thermal stability with complementary RNA (in words),[7],good thermal stability
same,decrease in the Tm value per phosphorothioate linkage,"[7]; with poly rA and d(C2 A12 C2), versus phosphodiester oligomer 4",about 2 °C
"4'-SrU3 -dT6 -4'-SrU3 /P11 (UUUTTTTTTUUU; 4'-thioribouridine units) [compound 4, mixed dodecamer with phosphodiester bonds]",Tm,[2]; 0.1 M NaCl,10 °C
same,Tm,[2]; 1 M NaCl,31 °C
same,Tm values compared with those of βrSU12 (in words),[2]; with d(C2 A12 C2),equivalent
same,Tm,[7]; 0.1 M NaCl,32 °C
same,Tm,[7]; 1 M NaCl,45 °C
same,thermal stability with complementary RNA (in words),[7],good thermal stability
same,Tm values compared with those of βrSU12 (in words),[7]; with poly rA,equivalent
βSrU12: homododecamer 4'-thio-β-D-ribonucleotide (βrSU12),Melting temperature (Tm),[2]; [10],5 °C
same,hypochromicity,[2]; [10],5.6%
same,Melting temperature (Tm),[2]; [11],27 °C
same,hypochromicity,[2]; [11],9.3%
same,Melting temperature (Tm),[7]; 0.1M NaCl,33 °C
same,hypochromicity,[7]; 0.1M NaCl,25%
same,Melting temperature (Tm),[7]; 1M NaCl,46 °C
same,hypochromicity,[7]; 1M NaCl,25%
same,thermal stability with complementary RNA (in words),[7],good thermal stability
same,self-hybridization (in words),[8],does not self-pair; also recorded: no self-hybridization
βdT5 (SrT)dT6: dodecamer βdT5 (SrT) dT6,difference in Tm (modified duplex lower than natural duplex),"[2]; 1M NaCl, 10 μM, versus βdT12/βdC2 A12 C2",5 °C
same,Melting temperature (Tm),[2]; [9],40 °C
same,hypochromicity,[2]; [9],18%
